Measured values: US20170107203A1, “HETEROCYCLIC INHIBITORS OF THE SODIUM CHANNEL” (EPIRUS BIOPHARMACEUTICALS, INC., priority 2014, published 2017)

Molecular target: T1, human Nav1.7 (Homo sapiens, UniProt Q15858)
T1 construct: expressed in transfected cells
Test: Assessment of Nav1.7 activity on PatchXpress (voltage dependence / slow inactivation parameters)
Format: cell-based
Conditions: compound at 10 μM, relative to 0.2% DMSO vehicle control; for hNav1.7: Reduction in current at 20 mV (normalized data) Delta Ratio: before/after 30 sec conditioning pulse at 20 mV; for hNav1.7: Shift in voltage dependence of inactivation (mV) Delta Vhalf: PatchXpress
Description: The generation of a HEK 293F cell line stably expressing human Nav1.7/Navp1 was achieved by co-transfecting human SCN9A and human SCN1B cDNAs, subcloned into plasmid vectors, utilizing standard transfection techniques. Clones were selected using appropriate selection agents (0.3 mg/mL Zeocin and 0.8 mg/mL Geneticin) and maintained in Dulbecco's Modified Eagle medium, 10% fetal bovine serum, 1% non-essential amino acids to ˜80% confluence at 37° C. in a humidified incubator with 95% atmosphere and 5% CO2.
On the day of each experiment, cells that were grown to 80% confluence in a T75 flask were harvested for use on PatchXpress (Molecular Devices, CA, USA). Following a recovery period at 37° C. in a humidified incubator with 95% atmosphere and 5% CO2 in Dulbecco's Modified Eagle Medium, the media was replaced with an external recording solution containing (in mM): 90 TEACI, 50 NaCl, 1.8 CaCl2, 1 MgCl2, 10 HEPES, 10 glucose, adjusted to pH 7.4 with TEAOH and 300 mOsm with sucrose. The internal recording solution contained (in mM): 129 CsF, 2 MgCl2, 11 EGTA, 10 HEPES, 6 NaCl, 3 Na2ATP adjusted to pH 7.2 with CsOH and 280 mOsm with sucrose. The automated liquid handling facility of PatchXpress dispensed cells and added compound. Modulation of Nav1.7 channels by compounds was assessed by promoting the channels into the inactivated state using a conditioning voltage pulse of variable amplitude, followed by a brief hyperpolarizing pulse with a subsequent depolarized voltage step to measure the current amplitude in the presence and absence of compound. Compounds were assayed at 10 μM. Based upon this Patch express protocol, four electrophysiological parameters were measured relative to a 0.2% DMSO vehicle control (Table 2).

T1 sequence (Q15858 whole entry): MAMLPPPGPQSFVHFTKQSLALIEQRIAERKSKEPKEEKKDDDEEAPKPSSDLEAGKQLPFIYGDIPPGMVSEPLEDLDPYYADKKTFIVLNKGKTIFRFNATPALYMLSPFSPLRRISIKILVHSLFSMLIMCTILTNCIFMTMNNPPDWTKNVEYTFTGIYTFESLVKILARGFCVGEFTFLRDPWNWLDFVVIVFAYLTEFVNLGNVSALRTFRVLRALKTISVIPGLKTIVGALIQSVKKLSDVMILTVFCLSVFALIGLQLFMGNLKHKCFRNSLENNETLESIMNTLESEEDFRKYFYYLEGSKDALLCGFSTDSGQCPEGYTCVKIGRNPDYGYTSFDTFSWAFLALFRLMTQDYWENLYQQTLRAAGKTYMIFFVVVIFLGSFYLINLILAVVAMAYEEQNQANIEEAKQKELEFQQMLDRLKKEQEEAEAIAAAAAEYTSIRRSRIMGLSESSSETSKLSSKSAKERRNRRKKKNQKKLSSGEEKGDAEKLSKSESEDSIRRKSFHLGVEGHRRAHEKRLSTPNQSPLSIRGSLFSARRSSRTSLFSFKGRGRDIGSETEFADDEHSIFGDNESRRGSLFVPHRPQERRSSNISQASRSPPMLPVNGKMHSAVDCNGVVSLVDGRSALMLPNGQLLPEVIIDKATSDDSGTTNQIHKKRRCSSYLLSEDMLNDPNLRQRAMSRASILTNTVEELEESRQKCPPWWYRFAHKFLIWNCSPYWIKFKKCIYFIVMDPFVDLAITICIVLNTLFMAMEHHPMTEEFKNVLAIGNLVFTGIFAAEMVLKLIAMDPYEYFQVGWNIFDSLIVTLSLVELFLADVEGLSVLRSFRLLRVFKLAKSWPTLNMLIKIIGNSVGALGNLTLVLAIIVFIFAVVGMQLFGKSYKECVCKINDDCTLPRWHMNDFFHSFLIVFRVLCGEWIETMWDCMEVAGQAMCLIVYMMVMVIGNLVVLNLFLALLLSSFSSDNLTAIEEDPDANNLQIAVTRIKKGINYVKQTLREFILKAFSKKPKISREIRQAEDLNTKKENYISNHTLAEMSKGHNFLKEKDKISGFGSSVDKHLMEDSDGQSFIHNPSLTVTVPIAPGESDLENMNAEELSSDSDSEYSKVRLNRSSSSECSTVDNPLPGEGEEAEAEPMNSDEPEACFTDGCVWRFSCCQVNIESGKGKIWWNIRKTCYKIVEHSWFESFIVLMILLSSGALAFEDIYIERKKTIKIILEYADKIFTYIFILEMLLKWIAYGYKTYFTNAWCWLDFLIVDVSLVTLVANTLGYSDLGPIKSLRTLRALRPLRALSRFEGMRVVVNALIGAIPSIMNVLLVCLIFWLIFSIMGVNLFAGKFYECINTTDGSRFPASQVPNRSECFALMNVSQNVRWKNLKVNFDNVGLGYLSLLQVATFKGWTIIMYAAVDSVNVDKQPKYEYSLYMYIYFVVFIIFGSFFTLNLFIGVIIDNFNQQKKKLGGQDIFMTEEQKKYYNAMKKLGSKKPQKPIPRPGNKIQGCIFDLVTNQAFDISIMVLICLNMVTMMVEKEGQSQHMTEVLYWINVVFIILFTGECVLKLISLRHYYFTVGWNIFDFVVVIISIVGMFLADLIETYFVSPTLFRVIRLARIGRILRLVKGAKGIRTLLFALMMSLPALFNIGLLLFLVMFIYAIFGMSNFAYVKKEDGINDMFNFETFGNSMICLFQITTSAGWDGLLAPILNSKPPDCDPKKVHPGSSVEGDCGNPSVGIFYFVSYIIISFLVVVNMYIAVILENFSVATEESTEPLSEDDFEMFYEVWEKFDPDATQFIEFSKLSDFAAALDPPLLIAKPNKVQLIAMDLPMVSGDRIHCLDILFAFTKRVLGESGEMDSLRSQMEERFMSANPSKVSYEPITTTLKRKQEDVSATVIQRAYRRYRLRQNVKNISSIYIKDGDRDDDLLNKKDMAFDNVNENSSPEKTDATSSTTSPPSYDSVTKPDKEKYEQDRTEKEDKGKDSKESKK
T1 sequence (Q07699 19-218 partner): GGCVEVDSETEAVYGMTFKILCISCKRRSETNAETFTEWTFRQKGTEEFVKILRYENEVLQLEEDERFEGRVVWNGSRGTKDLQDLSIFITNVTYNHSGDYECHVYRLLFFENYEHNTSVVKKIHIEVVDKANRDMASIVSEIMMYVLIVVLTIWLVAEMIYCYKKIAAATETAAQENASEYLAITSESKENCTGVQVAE

SMILES	hNav1.7: Reduction in current at 20 mV (normalized data) Delta Ratio	hNav1.7: Voltage dependence of activation (mV) VDEP	hNav1.7: Voltage dependence of fast inactivation (mV) VDEP	hNav1.7: Shift in voltage dependence of inactivation (mV) Delta Vhalf
N[C@H](Cc1ccc(F)cc1)Cc1nc2cc(C(F)(F)F)cc(C(F)(F)F)c2[nH]1 [Compound 56, (R)-1-(4,6-bis(trifluoromethyl)-1H-benzo[d]imidazol-2-yl)-3-(4-fluorophenyl)propan-2-amine]	−0.21	−14.4 mV	−3.3 mV	−16.8 mV
N[C@H](c1ccccc1)c1nc2cc(C(F)(F)F)cc(C(F)(F)F)c2[nH]1 [Compound 57, (R)-(4,6-bis(trifluoromethyl)-1H-benzo[d]imidazol-2-yl)(phenyl)methanamine]	−0.21	−4.7 mV	−4.8 mV	−10.4 mV
N[C@@H](c1ccc(F)cc1)c1nc2cc(C(F)(F)F)cc(C(F)(F)F)c2[nH]1 [Compound 58, (S)-(4,6-bis(trifluoromethyl)-1H-benzo[d]imidazol-2-yl)(4-fluorophenyl)methanamine]	−0.21	−4 mV	−4.9 mV	−8.6 mV
FC(F)(F)c1cc(C(F)(F)F)c2[nH]c(C3NCc4ccccc43)nc2c1 (centres unmarked) [Compound 59, 2-(isoindolin-1-y)-4,6-bis(trifluoromethyl)-1H-benzo[d]imidazole]	−0.2	−9 mV	−5.9 mV	−12.8 mV
N[C@H](Cc1cccc(C(F)(F)F)c1)C(=O)NCc1nc2ccc(-c3ccc(F)c(Cl)c3)cc2[nH]1 [Compound 71, (R)-2-amino-N-((6-(3-chloro-4-fluorophenyl)-1H-benzo[d]imidazol-2-yl)methyl)-3-(3-(trifluoromethyl)phenyl)propanamide]	−0.07	−10.5 mV	−6.3 mV	−8.5 mV
CC(C)(C)OC(=O)N[C@H](Cc1cccc(C(F)(F)F)c1)C(=O)NCc1nc2ccc(Br)cc2[nH]1 [Compound 72, tert-butyl (R)-(1-(((6-bromo-1H-benzo[d]imidazol-2-yl)methyl)amino)-1-oxo-3-(3-(trifluoromethyl)phenyl)propan-2-yl)carbamate]	−0.07	−3.3 mV	−7.3 mV	−6.7 mV
CC(C)(C)OC(=O)N[C@H](Cc1cccc(C(F)(F)F)c1)C(=O)NCc1nc2c(C(F)(F)F)cc(C(F)(F)F)cc2[nH]1 [Compound 73, tert-butyl (R)-(1-(((4,6-bis(trifluoromethyl)-1H-benzo[d]imidazol-2-yl)methyl)amino)-1-oxo-3-(3-(trifluoromethyl)phenyl)propan-2-yl)carbamate]	−0.07	−12.5 mV	−5.4 mV	−3.7 mV
N[C@H](Cc1cccc(C(F)(F)F)c1)C(=O)NCc1nc2ccc(Br)cc2[nH]1 [Compound 74, (R)-2-amino-N-((6-bromo-1H-benzo[d]imidazol-2-yl)methyl)-3-(3-(trifluoromethyl)phenyl)propanamide]	−0.07	−3.7 mV	−8.8 mV	−7.4 mV
N[C@H](Cc1cccc(C(F)(F)F)c1)C(=O)NCc1nc2c(C(F)(F)F)cc(C(F)(F)F)cc2[nH]1 [Compound 75, (R)-2-amino-N-((4,6-bis(trifluoromethyl)-1H-benzo[d]imidazol-2-yl)methyl)-3-(3-(trifluoromethyl)phenyl)propanamide]	−0.06	−15.4 mV	−3.7 mV	−2.3 mV

Results, then the compound that gave them:

hNav1.7: Reduction in current at 20 mV (normalized data) Delta Ratio	hNav1.7: Voltage dependence of activation (mV) VDEP	hNav1.7: Voltage dependence of fast inactivation (mV) VDEP	hNav1.7: Shift in voltage dependence of inactivation (mV) Delta Vhalf	SMILES
−0.19	−8.3 mV	−3.8 mV	−9.2 mV	CC(C)(c1nc2cc(C(F)(F)F)cc(C(F)(F)F)c2[nH]1)N1CCNCC1=O [Compound 60, 1-(2-(4,6-bis(trifluoromethyl)-1H-benzo[d]imidazol-2-yl)propan-2-yl)piperazin-2-one]
−0.19	−11.3 mV	−5.1 mV	−9.2 mV	O=C(CCc1nc2cc(C(F)(F)F)cc(C(F)(F)F)c2[nH]1)N1CCNCC1 [Compound 61, 3-(4,6-bis(trifluoromethyl)-1H-benzo[d]imidazol-2-yl)-1-(piperazin-1-yl)propan-1-one]
−0.19	−7.4 mV	−3.8 mV	−12.5 mV	CC(C)(CC(=O)N1CCNCC1)c1nc2cc(C(F)(F)F)cc(C(F)(F)F)c2[nH]1 [Compound 62, 3-(4,6-bis(trifluoromethyl)-1H-benzo[d]imidazol-2-yl)-3-methyl-1-(piperazin-1-yl)butan-1-one]
−0.17	−8.1 mV	−6.4 mV	−9.7 mV	O=C1CNCCN1Cc1nc2cc(Br)ccc2[nH]1 [Compound 63, 1-((6-bromo-1H-benzo[d]imidazol-2-yl)methyl)piperazin-2-one]
−0.16	−7.1 mV	−5.9 mV	−5.4 mV	CC(C)(c1nc2cc(F)cc(F)c2[nH]1)N1CCNCC1=O [Compound 64, 1-(2-(4,6-difluoro-1H-benzo[d]imidazol-2-yl)propan-2-yl)piperazin-2-one]
−0.16	−8.1 mV	−6.2 mV	−3.5 mV	CC(C)(CN1CCNCC1=O)c1nc2cc(C(F)(F)F)cc(C(F)(F)F)c2[nH]1 [Compound 65, 1-(2-(4,6-bis(trifluoromethyl)-1H-benzo[d]imidazol-2-yl)-2-methylpropyl)piperazin-2-one]
−0.14	−14.5 mV	−6.9 mV	−12.0 mV	O=C(CCc1nc2cc(F)cc(F)c2[nH]1)N1CCNCC1 [Compound 66, 3-(4,6-difluoro-1H-benzo[d]imidazol-2-yl)-1-(piperazin-1-yl)propan-1-one]
−0.13	−9.7 mV	−7.6 mV	−7.8 mV	CC(C)(CC(=O)N1CCNCC1)c1nc2cc(F)cc(F)c2[nH]1 [Compound 67, 3-(4,6-difluoro-1H-benzo[d]imidazol-2-yl)-3-methyl-1-(piperazin-1-yl)butan-1-one]
−0.1	−11.6 mV	−4.9 mV	−11.4 mV	O=C1CNCCN1CCCc1nc2cc(F)cc(F)c2[nH]1 [Compound 68, 1-(3-(4,6-difluoro-1H-benzo[d]imidazol-2-yl)propyl)piperazin-2-one]
−0.09	−9.2 mV	−4.9 mV	−7.5 mV	O=C1CNCCN1CCCc1nc2cc(C(F)(F)F)cc(C(F)(F)F)c2[nH]1 [Compound 69]
−0.08	−5.3 mV	−5.7 mV	−4.6 mV	CC(C)(CN1CCNCC1=O)c1nc2cc(F)cc(F)c2[nH]1 [Compound 70, 1-(2-(4,6-difluoro-1H-benzo[d]imidazol-2-yl)-2-methylpropyl)piperazin-2-one]
